Where a name gives a salt, the structure may show the parent alone.
Tested on: human CCRF-CEM cells
Test: cells
Conditions: 72 h, read-out: % growth (72 hrs exp.)
Description: Inhibition of the growth of human CCRF-CEM cells
Human leukemia cells (CCRF-CEM) were grown during 72 hours in the presence of increasing concentration of (6R)-N^5 -methyl-THF.[…].

Compound: CN1c2c(nc(N)[nH]c2=O)NC[C@H]1CNc1ccc(C(=O)N[C@@H](CCC(=O)O)C(=O)O)cc1 [(6R)-N^5 -Methyl-THF.Ca^2+, (6R)-N^5 -methyl-THF-calcium salt]
- activity at 1 µM: 95%
- activity at 10 µM: 99%
- activity at 30 µM: 10%
- activity at 100 µM: 9.3%
- activity at 250 µM: 8.2%

From patent US5194611A, “Separation technique for a mixture of (6RS)-diastereoisomers of an ammonium salt of N^5 -methyl-5,6,7,8-tetrahydrofolic acid into single (6R) and (6S)-diastereoisomers” (Sapec S.A. fine chemicals, priority 1990, dated 1993)
